Data published in ChEMBL document CHEMBL4765450, “The components and activities analysis of a novel anticoagulant candidate dHG-5” (Eur J Med Chem, 2020).
Active and inactive are the calls of the source. No cut-off for these calls is given here.

Experiments:
Mus musculus [1] = test: Anticoagulation activity in Kunming mouse assessed as APTT-prolonging effect by measuring time for maximum effect at 15.3 mg/kg, sc measured after 0.5 to 8 hrs by APTT reagent based assay; format: functional; conditions: time 0.5-8 hrs
[2] = target: Coagulation factor XI (Homo sapiens) (UniProt P03951); test: Inhibition of factor 11a (unknown origin) at IC50 using S-2366 as substrate preincubated for 1 min followed by chromogenic substrate addition and measured for 2 mins; conditions: time 3.0 min
[3] = Half life in Kunming mouse at 15.3 mg/kg, sc; format: ADME, organism-based; conditions: in vivo
[4] = target: Coagulation factor IX/VIII (Homo sapiens, UniProt P00451+P00740); test: Inhibition of human citrated plasma iXase (factor 8a-factor 9a complex) preincubated for 2 mins followed by factor 10 addition and measured after 1 min by FXa chromogenic substrate SXa-11 based assay; format: protein-complex assay
[5] = MRT (0 to 8 hrs) in Kunming mouse at 5.11 mg/kg, sc; format: ADME, organism-based; conditions: in vivo
[6] = Tmax in Kunming mouse at 15.3 mg/kg, sc; format: ADME, organism-based; conditions: in vivo
[7] = Toxicity in Kunming mouse tail bleeding model assessed as blood loss at 73.01 mg/kg, sc measured after 1 hr by UV-vis spectrophotometry; format: organism-based; conditions: in vivo
[8] = target: Coagulation factor X (Homo sapiens) (UniProt P00742); test: Inhibition of factor 10a (unknown origin) at IC90 preincubated for 1 min followed by chromogenic substrate addition and measured for 2 mins in presence of AT-III relative to control; conditions: time 3.0 min
[9] = target: Prothrombin (Homo sapiens) (UniProt P00734); test: Inhibition of factor 2a (unknown origin) at IC50 preincubated for 1 min followed by chromogenic substrate addition and measured for 2 mins in presence of AT-III; conditions: time 3.0 min
Mus musculus [10] = test: Anticoagulation activity in Kunming mouse assessed as APTT-prolonging effect by measuring time for maximum effect at 5.11 mg/kg, sc measured after 0.5 to 8 hrs by APTT reagent based assay; format: functional; conditions: time 0.5-8 hrs
[11] = target: Coagulation factor X (Homo sapiens) (UniProt P00742); test: Inhibition of factor 10a (unknown origin) at IC50 preincubated for 1 min followed by chromogenic substrate addition and measured for 2 mins; conditions: time 3.0 min
Plasma [12] = test: Anticoagulation activity in HCII-deficient human plasma preincubated for 2 mins followed by APTT reagent and measured after 3 mins by coagulometric method; format: functional, cell-free; conditions: time 5.0 min
[13] = Tmax in Kunming mouse at 5.11 mg/kg, sc; format: ADME, organism-based; conditions: in vivo
Plasma [14] = test: Induction of platelet aggregation in rat wash platelet at plasma peak concentration of 10 times anti-thrombosis ED50 measured after 10 mins by light transmission aggregometry
[15] = target: T1, Coagulation factor VII (Homo sapiens) (UniProt P08709); test: Inhibition of factor 7a (unknown origin) at IC50 using pefachrome factor VIIa as substrate preincubated for 1 min followed by chromogenic substrate addition and measured for 2 mins in presence of AT-III; conditions: time 3.0 min
T1 sequence (whole entry): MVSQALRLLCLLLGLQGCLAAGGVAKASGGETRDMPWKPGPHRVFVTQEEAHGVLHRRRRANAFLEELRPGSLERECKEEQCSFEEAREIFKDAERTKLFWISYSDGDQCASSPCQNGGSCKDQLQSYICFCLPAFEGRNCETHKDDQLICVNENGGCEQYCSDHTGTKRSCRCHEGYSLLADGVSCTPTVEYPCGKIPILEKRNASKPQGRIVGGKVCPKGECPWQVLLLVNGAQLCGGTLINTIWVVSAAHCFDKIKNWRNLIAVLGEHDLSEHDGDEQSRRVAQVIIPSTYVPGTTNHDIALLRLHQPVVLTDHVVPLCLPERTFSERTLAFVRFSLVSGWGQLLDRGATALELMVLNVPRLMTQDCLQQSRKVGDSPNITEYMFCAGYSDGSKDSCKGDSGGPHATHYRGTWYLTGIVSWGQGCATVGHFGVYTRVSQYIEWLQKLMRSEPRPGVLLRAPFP

[16] = MRT (0 to 8 hrs) in Kunming mouse at 15.3 mg/kg, sc; format: ADME, organism-based; conditions: in vivo
[17] = target: Prothrombin (Homo sapiens) (UniProt P00734); test: Inhibition of factor 2a (unknown origin) at IC50 preincubated for 1 min followed by chromogenic substrate addition and measured for 2 mins; conditions: time 3.0 min
Mus musculus [18] = test: Anticoagulation activity in Kunming mouse assessed as APTT-prolonging effect by measuring time for maximum effect at 1.7 mg/kg, sc measured after 0.5 to 8 hrs by APTT reagent based assay; format: functional; conditions: time 0.5-8 hrs
[19] = target: T2, Coagulation factor XII (Homo sapiens) (UniProt P00748); test: Inhibition of factor 12a (unknown origin) at IC50 using kallikrein chromogenic substrate preincubated for 1 min followed by chromogenic substrate addition and measured for 2 mins; conditions: time 3.0 min
T2 sequence (whole entry): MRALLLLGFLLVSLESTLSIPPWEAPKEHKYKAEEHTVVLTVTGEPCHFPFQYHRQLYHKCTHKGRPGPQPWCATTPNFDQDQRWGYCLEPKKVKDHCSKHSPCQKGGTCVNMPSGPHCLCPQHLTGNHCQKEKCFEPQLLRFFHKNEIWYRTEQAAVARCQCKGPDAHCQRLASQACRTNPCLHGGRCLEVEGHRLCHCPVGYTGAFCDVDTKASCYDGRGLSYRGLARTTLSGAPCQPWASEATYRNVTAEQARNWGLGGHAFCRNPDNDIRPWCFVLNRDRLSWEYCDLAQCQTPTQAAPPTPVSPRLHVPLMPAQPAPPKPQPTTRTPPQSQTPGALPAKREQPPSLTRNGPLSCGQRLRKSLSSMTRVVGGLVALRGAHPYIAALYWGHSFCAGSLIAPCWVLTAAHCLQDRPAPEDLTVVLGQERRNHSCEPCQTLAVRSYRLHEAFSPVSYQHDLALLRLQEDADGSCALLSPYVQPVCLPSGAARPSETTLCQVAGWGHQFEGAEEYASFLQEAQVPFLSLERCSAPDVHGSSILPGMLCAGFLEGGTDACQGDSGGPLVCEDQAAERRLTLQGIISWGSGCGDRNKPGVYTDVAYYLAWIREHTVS

[20] = target: Prothrombin (Homo sapiens) (UniProt P00734); test: Inhibition of factor 2a (unknown origin) at IC90 preincubated for 1 min followed by chromogenic substrate addition and measured for 2 mins in presence of AT-III; conditions: time 3.0 min
[21] = target: Coagulation factor XI (Homo sapiens) (UniProt P03951); test: Inhibition of factor 11a (unknown origin) at IC50 using S-2366 as substrate preincubated for 1 min followed by chromogenic substrate addition and measured for 2 mins in presence of AT-III; conditions: time 3.0 min
[22] = target: Coagulation factor X (Homo sapiens) (UniProt P00742); test: Inhibition of factor 10a (unknown origin) at IC50 preincubated for 1 min followed by chromogenic substrate addition and measured for 2 mins in presence of AT-III; conditions: time 3.0 min
Plasma [23] = test: Anticoagulation activity in human plasma assessed as drug level causing 20 times doubling of APTT preincubated for 2 mins followed by APTT reagent and measured after 3 mins by coagulometric method; format: functional; conditions: time 5 min
Plasma [24] = test: Anticoagulation activity in AT-III-deficient human plasma preincubated for 2 mins followed by APTT reagent and measured after 3 mins by coagulometric method; format: functional, cell-free; conditions: time 5.0 min
[25] = MRT (0 to infinity) in Kunming mouse at 1.7 mg/kg, sc; format: ADME, organism-based; conditions: in vivo
[26] = MRT (0 to 8 hrs) in Kunming mouse at 1.7 mg/kg, sc; format: ADME, organism-based; conditions: in vivo
Coagulation factor IX = Coagulation factor IX (Homo sapiens, UniProt P00740); test: Inhibition of factor 9a (unknown origin) binding to immobilized biotinylated oHG-11 by biolayer interferometry
Chain of Coagulation factor IX (P00740 47-191 limits assumed): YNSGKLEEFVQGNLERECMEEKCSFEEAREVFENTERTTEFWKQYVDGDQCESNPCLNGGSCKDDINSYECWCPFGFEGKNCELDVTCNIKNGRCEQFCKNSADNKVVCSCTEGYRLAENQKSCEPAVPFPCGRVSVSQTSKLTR
Chain of Coagulation factor IX (P00740 227-461 limits assumed): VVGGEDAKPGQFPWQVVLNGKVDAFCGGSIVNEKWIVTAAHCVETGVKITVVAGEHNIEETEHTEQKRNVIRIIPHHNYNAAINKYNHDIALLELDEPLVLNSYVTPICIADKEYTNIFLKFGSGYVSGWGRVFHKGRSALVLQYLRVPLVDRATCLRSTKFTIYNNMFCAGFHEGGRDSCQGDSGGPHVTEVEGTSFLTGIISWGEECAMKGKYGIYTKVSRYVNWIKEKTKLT

Chain of Coagulation factor X (Homo sapiens) (P00742 41-179 limits assumed): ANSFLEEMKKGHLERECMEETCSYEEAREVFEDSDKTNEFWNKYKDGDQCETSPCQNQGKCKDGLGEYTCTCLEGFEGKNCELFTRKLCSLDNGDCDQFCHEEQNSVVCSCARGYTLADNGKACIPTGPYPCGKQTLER
Chain of Coagulation factor X (Homo sapiens) (P00742 235-488 limits assumed): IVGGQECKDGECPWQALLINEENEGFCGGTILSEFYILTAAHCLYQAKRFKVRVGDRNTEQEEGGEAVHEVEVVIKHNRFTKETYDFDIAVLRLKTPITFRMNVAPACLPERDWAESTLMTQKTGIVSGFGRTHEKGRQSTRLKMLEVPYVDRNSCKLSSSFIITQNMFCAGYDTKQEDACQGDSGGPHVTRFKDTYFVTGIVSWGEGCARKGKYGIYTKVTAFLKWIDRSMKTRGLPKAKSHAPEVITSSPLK
Chain of Coagulation factor XI (Homo sapiens) (P03951 19-387 limits assumed): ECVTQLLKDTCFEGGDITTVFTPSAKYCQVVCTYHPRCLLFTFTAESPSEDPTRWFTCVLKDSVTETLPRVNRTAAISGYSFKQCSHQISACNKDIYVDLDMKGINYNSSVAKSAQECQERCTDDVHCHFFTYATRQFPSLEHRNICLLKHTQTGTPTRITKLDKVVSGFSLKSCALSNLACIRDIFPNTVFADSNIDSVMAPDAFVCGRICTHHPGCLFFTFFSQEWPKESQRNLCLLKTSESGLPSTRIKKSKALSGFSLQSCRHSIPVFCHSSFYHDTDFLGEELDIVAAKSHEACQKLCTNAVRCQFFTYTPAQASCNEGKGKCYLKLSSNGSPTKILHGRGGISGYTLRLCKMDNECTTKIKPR
Chain of Coagulation factor XI (Homo sapiens) (P03951 388-625 limits assumed): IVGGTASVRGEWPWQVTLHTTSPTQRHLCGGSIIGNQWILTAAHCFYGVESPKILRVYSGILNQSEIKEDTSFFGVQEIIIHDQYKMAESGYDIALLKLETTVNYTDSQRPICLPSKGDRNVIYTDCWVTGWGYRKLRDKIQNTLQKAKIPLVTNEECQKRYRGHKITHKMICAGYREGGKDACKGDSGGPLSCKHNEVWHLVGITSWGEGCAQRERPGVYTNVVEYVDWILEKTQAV
Chain of Coagulation factor IX/VIII (P00451 20-759 limits assumed): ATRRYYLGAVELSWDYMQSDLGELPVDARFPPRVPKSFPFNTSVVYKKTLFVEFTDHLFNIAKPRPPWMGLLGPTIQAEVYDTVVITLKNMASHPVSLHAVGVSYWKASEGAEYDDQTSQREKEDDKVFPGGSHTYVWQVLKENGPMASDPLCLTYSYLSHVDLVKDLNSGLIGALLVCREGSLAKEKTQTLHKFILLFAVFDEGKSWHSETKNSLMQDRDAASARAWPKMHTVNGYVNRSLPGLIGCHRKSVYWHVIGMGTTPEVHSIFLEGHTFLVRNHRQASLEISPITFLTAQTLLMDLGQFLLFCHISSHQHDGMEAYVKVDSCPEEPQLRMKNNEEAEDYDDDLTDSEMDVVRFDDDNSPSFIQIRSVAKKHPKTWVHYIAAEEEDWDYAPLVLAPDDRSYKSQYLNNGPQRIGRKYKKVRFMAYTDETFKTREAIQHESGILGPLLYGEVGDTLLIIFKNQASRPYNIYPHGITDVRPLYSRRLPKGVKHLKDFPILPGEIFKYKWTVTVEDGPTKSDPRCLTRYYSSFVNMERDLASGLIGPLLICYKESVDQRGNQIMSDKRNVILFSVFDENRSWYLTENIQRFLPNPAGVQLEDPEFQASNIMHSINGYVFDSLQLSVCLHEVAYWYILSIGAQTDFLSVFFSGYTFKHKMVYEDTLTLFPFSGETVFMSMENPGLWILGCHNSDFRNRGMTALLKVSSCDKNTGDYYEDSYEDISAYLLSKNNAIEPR
Chain of Coagulation factor IX/VIII (P00451 1668-2351 limits assumed): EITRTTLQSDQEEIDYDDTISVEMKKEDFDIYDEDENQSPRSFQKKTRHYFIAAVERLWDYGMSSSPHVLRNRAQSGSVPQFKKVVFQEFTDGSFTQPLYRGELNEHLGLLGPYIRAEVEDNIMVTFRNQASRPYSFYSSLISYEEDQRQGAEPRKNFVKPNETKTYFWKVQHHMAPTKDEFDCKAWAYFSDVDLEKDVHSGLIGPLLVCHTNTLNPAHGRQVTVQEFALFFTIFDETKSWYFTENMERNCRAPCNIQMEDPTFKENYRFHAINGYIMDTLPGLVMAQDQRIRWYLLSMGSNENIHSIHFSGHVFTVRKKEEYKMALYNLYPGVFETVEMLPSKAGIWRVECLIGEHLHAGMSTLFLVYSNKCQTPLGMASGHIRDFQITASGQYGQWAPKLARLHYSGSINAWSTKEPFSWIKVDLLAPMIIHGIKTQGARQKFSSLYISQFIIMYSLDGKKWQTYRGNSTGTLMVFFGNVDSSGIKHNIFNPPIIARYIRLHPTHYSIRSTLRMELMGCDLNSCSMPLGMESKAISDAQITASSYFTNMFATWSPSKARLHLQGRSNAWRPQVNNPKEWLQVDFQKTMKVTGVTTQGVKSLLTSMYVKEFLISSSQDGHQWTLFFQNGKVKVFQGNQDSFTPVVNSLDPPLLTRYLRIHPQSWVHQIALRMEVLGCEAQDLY
Chain of Coagulation factor IX/VIII (P00740 47-191 limits assumed): as the sequence (P00740 47-191 limits assumed) above
Chain of Coagulation factor IX/VIII (P00740 227-461 limits assumed): as the sequence (P00740 227-461 limits assumed) above

inhibition [2]: inactive
half-life [3]: 0.564 h
IC50 [4]: 14 nM
MRT last [5]: 1.52 h
Tmax [6]: 0.75 h
inhibition [8]: inactive
inhibition [9]: inactive
inhibition [11]: inactive
Tmax [13]: 0.75 h
Activity (Plasma [14]): Not Active
inhibition [15]: inactive
MRT last [16]: 1.66 h
inhibition [17]: inactive
inhibition [19]: inactive
inhibition [20]: Active
inhibition [21]: inactive
inhibition [22]: inactive
MRT inf [25]: 2.21 h
MRT last [26]: 1.99 h
IC50 (Coagulation factor IX): 430 nM
SMILES: CC(=O)N[C@H]1[C@H](O[C@H]2[C@H](O[C@@H]3O[C@@H](C)[C@@H](OS(=O)(=O)[O-])[C@@H](O)[C@@H]3OS(=O)(=O)O)[C@@H](O)[C@H](O[C@H]3[C@@H](NC(C)=O)[C@H](O[C@H]4[C@H](O[C@@H]5O[C@@H](C)[C@@H](OS(=O)(=O)[O-])[C@@H](O)[C@@H]5OS(=O)(=O)O)[C@@H](O)[C@H](O[C@H]5[C@@H](NC(C)=O)[C@H](O[C@H]6[C@H](O[C@@H]7O[C@@H](C)[C@@H](OS(=O)(=O)[O-])[C@@H](O)[C@@H]7OS(=O)(=O)O)[C@@H](O)[C@H](O[C@H]7[C@@H](NC(C)=O)[C@H](O[C@H]8[C@H](O[C@@H]9O[C@@H](C)[C@@H](OS(=O)(=O)[O-])[C@@H](O)[C@@H]9OS(=O)(=O)O)[C@@H](O)[C@H](O[C@H]9[C@@H](NC(C)=O)[C@H](O[C@@H]([C@H](O[C@@H]%10O[C@@H](C)[C@@H](OS(=O)(=O)[O-])[C@@H](O)[C@@H]%10OS(=O)(=O)O)[C@@H](O)CO)[C@H](O)C(=O)[O-])O[C@H](COS(=O)(=O)[O-])[C@@H]9OS(=O)(=O)[O-])O[C@@H]8C(=O)[O-])O[C@H](COS(=O)(=O)[O-])[C@@H]7OS(=O)(=O)[O-])O[C@@H]6C(=O)[O-])O[C@H](COS(=O)(=O)[O-])[C@@H]5OS(=O)(=O)[O-])O[C@@H]4C(=O)[O-])O[C@H](COS(=O)(=O)[O-])[C@@H]3OS(=O)(=O)[O-])O[C@@H]2C(=O)[O-])O[C@H](COS(=O)(=O)[O-])[C@H](OS(=O)(=O)[O-])[C@@H]1O[C@@H]1OC(C(=O)[O-])=C[C@H](O[C@@H]2O[C@@H](C)[C@@H](OS(=O)(=O)[O-])[C@@H](O)[C@@H]2OS(=O)(=O)O)[C@H]1O.[Na+].[Na+].[Na+].[Na+].[Na+].[Na+].[Na+].[Na+].[Na+].[Na+].[Na+].[Na+].[Na+].[Na+].[Na+].[Na+].[Na+].[Na+].[Na+].[Na+].[Na+].[Na+]
Emax (Mus musculus [1]): 20.2 s
Activity [7]: 139 µL
Emax (Mus musculus [10]): 7.68 s
Activity (Plasma [12]): Active
Emax (Mus musculus [18]): 4.39 s
EC (Plasma [23]): 1.79 µM
Activity (Plasma [24]): Active
